From PubChem BioAssay AID330 (DTP/NCI, 2004)
Where “and” joins values, the source holds several entries; their conditions need not be identical. Equal values may be shown once. Inconclusive results and toxic doses are left out. How the source made its calls: active means survival T/C of 150% or more; inactive means T/C below 125% in these data.

Test system: P388 leukemia ip, CD2F1 mice, survival T/C
Experiment: NCI In Vivo Anticancer Drug Screen. Data for tumor model P388 Leukemia (intraperitoneal) in CD2F1 (CDF1) mice
Conditions: endpoint: median survival time, higher = longer survival
Summary of the method: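 Mice carrying the transplanted tumor received test compound or vehicle. Survival was recorded in each group, and the value is the treated-group measurement divided by that of the vehicle-treated control group.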

[1] = dose: 50.0 mg/kg/injection, schedule: Q01DX005 (ip), vehicle: saline with Tween-80
[2] = dose: 50.0 mg/kg/injection, schedule: Q01DX009 (ip), vehicle: saline with Tween-80
[3] = dose: 100.0 mg/kg/injection, schedule: Q01DX009 (ip), vehicle: saline with Tween-80
[4] = dose: 200.0 mg/kg/injection, schedule: Q01DX009 (ip), vehicle: saline with Tween-80
[5] = dose: 60.0 mg/kg/injection, schedule: Q01DX005 (ip), vehicle: saline with Tween-80
[6] = dose: 120.0 mg/kg/injection, schedule: Q01DX005 (ip), vehicle: saline with Tween-80
[7] = dose: 240.0 mg/kg/injection, schedule: Q01DX005 (ip), vehicle: saline with Tween-80
[8] = dose: 200.0 mg/kg/injection, schedule: Q04DX003 (ip), vehicle: saline with Tween-80
[9] = dose: 400.0 mg/kg/injection, schedule: Q04DX003 (ip), vehicle: saline with Tween-80
[10] = dose: 50.0 mg/kg/injection, schedule: Q01DX009 (ip), vehicle: saline
[11] = dose: 100.0 mg/kg/injection, schedule: Q01DX009 (ip), vehicle: saline
[12] = dose: 200.0 mg/kg/injection, schedule: Q01DX009 (ip), vehicle: saline
[13] = dose: 100.0 mg/kg/injection, schedule: Q04DX003 (ip), vehicle: saline with Tween-80

Measured: T/C

OC(c1ccccc1)(c1ccccc1)c1ccc(C[P+](c2ccccc2)(c2ccccc2)c2ccccc2)cc1
inactive: dose: 1.56 mg/kg/injection, schedule: Q01DX009 (ip), vehicle: other 101 % of control | dose: 3.13 mg/kg/injection, schedule: Q01DX009 (ip), vehicle: other 117 % of control

Cn1c2ccccc2c(=O)c2cc(NC(=O)CCCC(=O)Nc3ccc4c(c3)c(=O)c3ccccc3n4C)ccc21
inactive: [1] 98 % of control | dose: 100.0 mg/kg/injection, schedule: Q01DX005 (ip), vehicle: saline with Tween-80 99 % of control | dose: 200.0 mg/kg/injection, schedule: Q01DX005 (ip), vehicle: saline with Tween-80 101 % of control

CC1CCC2C(C)C3C(CC4C5CCC6CC(O)CCC6(C)C5CCC43CO)N2C1 (stereo unspecified)
inactive: dose: 50.0 mg/kg/injection, schedule: Q01DX005 (ip), vehicle: Klucel (hydroxypropylcellulose) (HPC) 101 % of control | dose: 100.0 mg/kg/injection, schedule: Q01DX005 (ip), vehicle: Klucel (hydroxypropylcellulose) (HPC) 108 % of control | dose: 200.0 mg/kg/injection, schedule: Q01DX005 (ip), vehicle: Klucel (hydroxypropylcellulose) (HPC) 113 % of control

O=C1NN=COc2ccccc21
inactive: [2] 106 % of control and 108 % of control and 93 % of control | [3] 100 % of control and 102 % of control and 105 % of control | [4] 106 % of control and 115 % of control and 121 % of control | dose: 400.0 mg/kg/injection, schedule: Q01DX009 (ip), vehicle: saline with Tween-80 110 % of control and 119 % of control

O=C(NCc1ccco1)Nc1c(Cl)cc(Cl)cc1Cl
inactive: [5] 103 % of control | [6] 100 % of control | [7] 100 % of control

CC1(C)N=C(Oc2cc(Cl)cc(Cl)c2)NC(=S)N1
inactive: dose: 60.0 mg/kg/injection, schedule: Q01DX005 (ip), vehicle: DMSO 109 % of control | dose: 120.0 mg/kg/injection, schedule: Q01DX005 (ip), vehicle: DMSO 100 % of control | dose: 240.0 mg/kg/injection, schedule: Q01DX005 (ip), vehicle: DMSO 97 % of control

CCOC1Oc2ccccc2-c2nc(C)c(C#N)cc21 (stereo unspecified)
inactive: [5] 90 % of control | [6] 88 % of control | [7] 90 % of control

CCCCCCCCC#CCCCCCCCCCCCC(=O)O
inactive: [2] 88 % of control | [4] 90 % of control

CCCC(C)N(CCCNc1cc(OC)cc2cccnc12)CC(C)C (stereo unspecified)
inactive: dose: 12.5 mg/kg/injection, schedule: Q01DX005 (ip), vehicle: saline 100 % of control | dose: 25.0 mg/kg/injection, schedule: Q01DX005 (ip), vehicle: saline 107 % of control | [1] 96 % of control | dose: 50.0 mg/kg/injection, schedule: Q01DX005 (ip), vehicle: saline 94 % of control

CSC1(CCC#N)C(=O)Nc2ccccc21 (stereo unspecified)
inactive: [8] 102 % of control | [9] 108 % of control

CCOC(=O)c1cn2ccccc2c1C(=O)OCC
inactive: [5] 108 % of control | [6] 99 % of control | [7] 92 % of control

ClCC1CSC2(CCCCC2)O1 (stereo unspecified)
inactive: [2] 104 % of control and 115 % of control | [3] 100 % of control and 119 % of control | [4] 97 % of control

CC1=NNC(=O)CC1C(O)c1ccc(F)cc1 (stereo unspecified)
inactive: [5] 100 % of control | [6] 104 % of control | [7] 100 % of control

N=C1N=Nc2nc(C3(c4nc5n(c4O)C(=N)N=N5)Cc4ccccc4C3=O)c(O)n21 (stereo unspecified)
inactive: dose: 60.0 mg/kg/injection, schedule: Q01DX005 (ip), vehicle: saline 96 % of control | dose: 120.0 mg/kg/injection, schedule: Q01DX005 (ip), vehicle: saline 103 % of control | dose: 240.0 mg/kg/injection, schedule: Q01DX005 (ip), vehicle: saline 108 % of control

CC(C)(C)C1CCC(NC(=O)c2ccccc2)CC1 (stereo unspecified)
inactive: dose: 3.13 mg/kg/injection, schedule: Q01DX009 (ip), vehicle: saline with Tween-80 99 % of control | dose: 6.25 mg/kg/injection, schedule: Q01DX009 (ip), vehicle: saline with Tween-80 99 % of control | dose: 12.5 mg/kg/injection, schedule: Q01DX009 (ip), vehicle: saline with Tween-80 93 % of control | dose: 25.0 mg/kg/injection, schedule: Q01DX009 (ip), vehicle: saline with Tween-80 99 % of control

Fc1ccc(NC(=S)SCc2ccccc2)cc1F
inactive: [10] 100 % of control | [11] 108 % of control | [12] 107 % of control

COc1ccc(C(C)c2cc(C(C)(C)C)c(O)c(C(C)(C)C)c2)cc1 (stereo unspecified)
inactive: dose: 50.0 mg/kg/injection, schedule: Q01DX005 (ip), vehicle: distilled water + alcohol 103 % of control | dose: 100.0 mg/kg/injection, schedule: Q01DX005 (ip), vehicle: distilled water + alcohol 100 % of control | dose: 200.0 mg/kg/injection, schedule: Q01DX005 (ip), vehicle: distilled water + alcohol 105 % of control

COC1=C/C(=C\N(O)C(C)(C)CO)C=CC1=O
inactive: [2] 99 % of control | [3] 91 % of control | [4] 91 % of control

COc1ccc2c(c1)CC[C@@H]1[C@@H]2CC[C@@]2(C)[C@H]1CC[C@@]2(O)C(F)=C(F)F
inactive: [13] 88 % of control | [8] 88 % of control

CC1(C)OC1CCl (stereo unspecified)
inactive: [10] 107 % of control | [11] 102 % of control | [12] 101 % of control

Clc1cc2nsnc2cc1Cl
inactive: dose: 50.0 mg/kg/injection, schedule: Q04DX003 (ip), vehicle: saline 100 % of control | dose: 100.0 mg/kg/injection, schedule: Q04DX003 (ip), vehicle: saline 94 % of control | dose: 200.0 mg/kg/injection, schedule: Q04DX003 (ip), vehicle: saline 104 % of control | dose: 400.0 mg/kg/injection, schedule: Q04DX003 (ip), vehicle: saline 101 % of control

CC1(C)CNC(=O)C2=C(O1)C(=O)OC2
inactive: dose: 100.0 mg/kg/injection, schedule: Q04DX002 (ip), vehicle: saline with Tween-80 100 % of control | dose: 200.0 mg/kg/injection, schedule: Q04DX002 (ip), vehicle: saline with Tween-80 100 % of control | dose: 400.0 mg/kg/injection, schedule: Q04DX002 (ip), vehicle: saline with Tween-80 103 % of control

CCN(C(=O)COc1ccc(Cl)cc1Cl)c1ccccc1C
inactive: [13] 100 % of control | [8] 100 % of control | [9] 100 % of control

O=C([O-])c1c[n+]2c(cc1C(=O)O)-c1cc3c(cc1CC2)OCO3
inactive: dose: 0.63 mg/kg/injection, schedule: Q01DX009 (ip), vehicle: distilled water + Tween-80 99 % of control | dose: 1.25 mg/kg/injection, schedule: Q01DX009 (ip), vehicle: distilled water + Tween-80 94 % of control | dose: 2.5 mg/kg/injection, schedule: Q01DX009 (ip), vehicle: distilled water + Tween-80 94 % of control | dose: 5.0 mg/kg/injection, schedule: Q01DX009 (ip), vehicle: distilled water + Tween-80 94 % of control | dose: 10.0 mg/kg/injection, schedule: Q01DX009 (ip), vehicle: distilled water + Tween-80 99 % of control | dose: 20.0 mg/kg/injection, schedule: Q01DX009 (ip), vehicle: distilled water + Tween-80 100 % of control

O=C1C(c2ccccc2)=C(c2ccccc2)C(=O)N1c1ccccn1
inactive: dose: 50.0 mg/kg/injection, schedule: Q01DX009 (ip), vehicle: Klucel (hydroxypropylcellulose) (HPC) 94 % of control | dose: 100.0 mg/kg/injection, schedule: Q01DX009 (ip), vehicle: Klucel (hydroxypropylcellulose) (HPC) 105 % of control | dose: 200.0 mg/kg/injection, schedule: Q01DX009 (ip), vehicle: Klucel (hydroxypropylcellulose) (HPC) 103 % of control

CC(=O)OCCN1CCOC(O)(c2cccc(C(F)(F)F)c2)C1 (stereo unspecified)
inactive: [5] 115 % of control | [6] 108 % of control | [7] 113 % of control
